Experimental data: patent US10837957B2, “In vitro model for pathological or physiologic conditions” (HemoShear, LLC, priority 2012, dated 2020)

What was measured:
[1] = system: hepatocytes; experiment: In vitro fatty liver model: lipid accumulation (Nile red, Oil Red O, total triglycerides); assay type: cell-based, rat; conditions: 1.5 μM pioglitazone, high insulin/glucose media
Experimental: Samples were then blocked in 5% goat serum, 0.2% blotting grade non-fat dry milk blocker, and 1% BSA in PBS for 45 minutes. The samples were then washed thrice in 0.1% BSA in PBS and incubated with 1:5000 dilution of Nile red (1 mM stock), 1:1000 DRAQS (a fluorescent DNA dye; Cell Signalling), 1:500 ALEXA FLUOR 488 conjugated phalloidin (Life Technologies), and 1% BSA in PBS for thirty minutes and protected from light. The samples were washed in 0.1% BSA in PBS thrice for five minutes each and mounted on glass cover slips using PROLONG GOLD antifade mounting media (an antifade reagent; Invitrogen). The samples were imaged on a Nikon C1+ Confocal System microscope. Oil Red O Assay: Accumulation of intracellular lipids within hepatocytes was assessed by adapting and modifying a commercially available Steatosis Colorimetric Assay Kit (Cayman Chemical). At the end of the culture period, 2 cm^2 sized porous membrane segments containing the hepatocytes from devices under healthy and steatotic conditions were washed with PBS and fixed in 4% paraformaldehyde for 30 minutes. […] The solution was then transferred to clear 96-well plates and absorbance was read at 490-520 nm in a spectrophotometer. Measurement of Total Triglycerides: Triglyceride content was assessed using a commercially available colorimetric assay kit (Cayman Triglyceride Colorimetric Assay Kit, Cat #10010303). […]

[2] = system: hepatocytes; experiment: In vitro fatty liver model: RT-PCR of metabolic and lipid pathway genes; assay type: cell-based, rat; conditions: 1.5 μM pioglitazone, high insulin/glucose disease conditions

## CCc1ccc(CCOc2ccc(CC3SC(=O)NC3=O)cc2)nc1 (centres unmarked) [Pioglitazone, pioglitazone]
[1]
  total triglyceride content of hepatocytes: reduced
[2]
  expression of metabolic genes such as Cyp3A2: restored
